“And” between values parts separate entries of the source, which are not always exact repeats. Equal values may be shown once.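 In this assay, cells in 96-well plates receive the compound at five concentrations for 48 hours. Endpoints are linearly interpolated between the surrounding concentrations. GI50 is the concentration that inhibits growth by half. At the TGI there is no net growth.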
How the values were obtained:
Assay in all cases: NCI anticancer screen, dose series, 48 h; in the data active = GI50 below about 0.43 µM; inactive = the rest
SK-MEL-5 melanoma = system: SK-MEL-5 melanoma
MCF7 breast = system: MCF7 breast
SN12C renal = system: SN12C renal
UO-31 renal = system: UO-31 renal
SF-268 CNS = system: SF-268 CNS
HOP-62 NSCLC = system: HOP-62 NSCLC
HT29 colon = system: HT29 colon
HCT-116 colon = system: HCT-116 colon
RXF 393 renal = system: RXF 393 renal
HL-60(TB) leukemia = system: HL-60(TB) leukemia
SR leukemia = system: SR leukemia
IGROV1 ovarian = system: IGROV1 ovarian
NCI-H522 lung = system: NCI-H522 lung
HCT-15 colon = system: HCT-15 colon
K-562 leukemia = system: K-562 leukemia
OVCAR-3 ovarian = system: OVCAR-3 ovarian
NCI-H226 lung = system: NCI-H226 lung
OVCAR-5 ovarian = system: OVCAR-5 ovarian
SNB-75 CNS = system: SNB-75 CNS
NCI-H23 lung = system: NCI-H23 lung
M14 melanoma = system: M14 melanoma
KM12 colon = system: KM12 colon
SF-539 CNS = system: SF-539 CNS
SK-MEL-28 melanoma = system: SK-MEL-28 melanoma
SF-295 CNS = system: SF-295 CNS
BT-549 breast = system: BT-549 breast
HCC-2998 colon = system: HCC-2998 colon
UACC-62 melanoma = system: UACC-62 melanoma
RPMI-8226 leukemia = system: RPMI-8226 leukemia
TK-10 renal = system: TK-10 renal
CAKI-1 renal = system: CAKI-1 renal
ACHN renal = system: ACHN renal
A549 NSCLC = system: A549 NSCLC
UACC-257 melanoma = system: UACC-257 melanoma
PC-3 prostate = system: PC-3 prostate
U251 CNS = system: U251 CNS
A498 renal = system: A498 renal
OVCAR-8 ovarian = system: OVCAR-8 ovarian
NCI/ADR-RES ovarian = system: NCI/ADR-RES ovarian
DU-145 prostate = system: DU-145 prostate
SNB-19 CNS = system: SNB-19 CNS
MOLT-4 leukemia = system: MOLT-4 leukemia
SK-MEL-2 melanoma = system: SK-MEL-2 melanoma
CCRF-CEM leukemia = system: CCRF-CEM leukemia
COLO 205 colon = system: COLO 205 colon
NCI-H460 lung = system: NCI-H460 lung
786-0 renal = system: 786-0 renal
SK-OV-3 ovarian = system: SK-OV-3 ovarian
MALME-3M melanoma = system: MALME-3M melanoma
SW-620 colon = system: SW-620 colon
EKVX NSCLC = system: EKVX NSCLC
T-47D breast = system: T-47D breast
MDA-MB-435 = system: MDA-MB-435
HOP-92 NSCLC = system: HOP-92 NSCLC
OVCAR-4 ovarian = system: OVCAR-4 ovarian
MDA-MB-231 breast = system: MDA-MB-231 breast
HS 578T breast = system: HS 578T breast
LOX IMVI melanoma = system: LOX IMVI melanoma

COc1c(Br)cc(/C=C(\C#N)c2ccccn2)cc1Br
75.1 µM: TGI (RXF 393 renal)
17.1 µM: TGI (SNB-75 CNS)
41.8 µM: TGI (SK-MEL-2 melanoma)
89.1 µM: TGI (HOP-62 NSCLC)
50.9 µM: TGI (EKVX NSCLC)
73.8 µM: TGI (UACC-62 melanoma)
9.57 µM: TGI (A498 renal)
25.6 µM: TGI (786-0 renal)
> 100 µM: TGI (SK-MEL-5 melanoma) | TGI (MCF7 breast) | TGI (SN12C renal) | TGI (UO-31 renal) | TGI (SF-268 CNS) | TGI (HT29 colon) | TGI (HCT-116 colon) | TGI (HL-60(TB) leukemia) | TGI (SR leukemia) | TGI (IGROV1 ovarian) | TGI (NCI-H522 lung) | TGI (HCT-15 colon) | TGI (K-562 leukemia) | TGI (OVCAR-3 ovarian) | TGI (NCI-H226 lung) | TGI (OVCAR-5 ovarian) | TGI (NCI-H23 lung) | TGI (M14 melanoma) | TGI (KM12 colon) | TGI (SF-539 CNS) | TGI (SK-MEL-28 melanoma) | TGI (SF-295 CNS) | TGI (HCC-2998 colon) | TGI (RPMI-8226 leukemia) | TGI (TK-10 renal) | TGI (CAKI-1 renal) | TGI (ACHN renal) | TGI (A549 NSCLC) | TGI (UACC-257 melanoma) | TGI (PC-3 prostate) | TGI (U251 CNS) | TGI (OVCAR-8 ovarian) | TGI (NCI/ADR-RES ovarian) | TGI (DU-145 prostate) | TGI (SNB-19 CNS) | TGI (MOLT-4 leukemia) | TGI (CCRF-CEM leukemia) | TGI (COLO 205 colon) | TGI (NCI-H460 lung) | TGI (SK-OV-3 ovarian) | TGI (MALME-3M melanoma) | TGI (SW-620 colon)
94.8 µM: TGI (BT-549 breast)

COc1cc(/C=C/c2cc(O)c(C/C=C(\C)CC/C=C(\C)CO)c(O)c2)cc2c1O[C@]1(C)CC[C@@H](O)C(C)(C)[C@H]1C2
0.0949 µM: TGI (MOLT-4 leukemia)
> 89 µM: TGI (HOP-62 NSCLC)
inactive: GI50 (HOP-62 NSCLC) 7.06 µM and 12.9 µM | GI50 (HT29 colon) 31.1 µM | GI50 (HL-60(TB) leukemia) 0.511 µM | GI50 (IGROV1 ovarian) > 100 µM | GI50 (T-47D breast) > 62.4 µM | GI50 (MDA-MB-435) 38.4 µM | GI50 (OVCAR-3 ovarian) > 29.3 µM | GI50 (OVCAR-5 ovarian) > 100 µM | GI50 (SNB-75 CNS) 55 µM | GI50 (NCI-H23 lung) 4.93 µM and 20.5 µM | GI50 (M14 melanoma) 0.486 µM and 3.68 µM | GI50 (SF-539 CNS) 3.4 µM | GI50 (SK-MEL-28 melanoma) > 58.3 µM | GI50 (SF-295 CNS) 1.1 µM | GI50 (BT-549 breast) 4.14 µM | GI50 (HCC-2998 colon) 12 µM | GI50 (CAKI-1 renal) 9.36 µM | GI50 (A549 NSCLC) 3.96 µM and 9.59 µM | GI50 (UACC-257 melanoma) > 100 µM | GI50 (OVCAR-8 ovarian) > 53.3 µM | GI50 (DU-145 prostate) 26.4 µM | GI50 (SNB-19 CNS) > 91.9 µM | GI50 (SK-MEL-2 melanoma) > 100 µM | GI50 (COLO 205 colon) 3.21 µM and 15.6 µM | GI50 (OVCAR-4 ovarian) 32.5 µM | GI50 (MDA-MB-231 breast) 31 µM | GI50 (SK-OV-3 ovarian) > 100 µM
11.1 µM: TGI (SF-539 CNS)
> 79.6 µM: TGI (MDA-MB-435)
46.5 µM: TGI (HCT-116 colon)
> 70.2 µM: TGI (OVCAR-3 ovarian)
> 100 µM: TGI (SN12C renal) | TGI (SF-268 CNS) | TGI (HT29 colon) | TGI (RXF 393 renal) | TGI (IGROV1 ovarian) | TGI (T-47D breast) | TGI (NCI-H226 lung) | TGI (OVCAR-5 ovarian) | TGI (SNB-75 CNS) | TGI (KM12 colon) | TGI (SK-MEL-28 melanoma) | TGI (UACC-257 melanoma) | TGI (PC-3 prostate) | TGI (NCI/ADR-RES ovarian) | TGI (DU-145 prostate) | TGI (SNB-19 CNS) | TGI (SK-MEL-2 melanoma) | TGI (COLO 205 colon) | TGI (OVCAR-4 ovarian) | TGI (MDA-MB-231 breast) | TGI (NCI-H460 lung) | TGI (SK-OV-3 ovarian)
> 62.5 µM: TGI (A549 NSCLC)
> 93.7 µM: TGI (NCI-H23 lung)
> 82.3 µM: TGI (OVCAR-8 ovarian)
98.6 µM: TGI (EKVX NSCLC)
39.6 µM: TGI (HCC-2998 colon)
> 42.9 µM: TGI (CAKI-1 renal)
> 84.6 µM: TGI (HOP-92 NSCLC)
> 71.4 µM: TGI (ACHN renal)
active: GI50 (786-0 renal) 0.0172 µM and 0.13 µM
> 72.4 µM: TGI (HCT-15 colon)
8.3 µM and > 72.6 µM: TGI (U251 CNS)
3.72 µM and 19 µM: TGI (M14 melanoma)
> 93.8 µM: TGI (TK-10 renal)
5.69 µM: TGI (HL-60(TB) leukemia)
> 54.7 µM: TGI (BT-549 breast)

N=C(N)c1ccc(-c2ccc(-c3ccc(Cl)c(Cl)c3)o2)cc1
inactive: GI50 (HL-60(TB) leukemia) 1.55 µM | GI50 (HS 578T breast) 2.1 µM
5.52 µM: TGI (HS 578T breast)
4.05 µM: TGI (HL-60(TB) leukemia)

O=C(CSc1ncc(-c2ccccc2)n1-c1ccccc1)Nc1ccc(-c2nc3ccccc3s2)cc1
73.2 µM: TGI (SK-MEL-2 melanoma)
29.6 µM: TGI (SNB-75 CNS)
inactive: GI50 (SK-MEL-5 melanoma) > 100 µM | GI50 (MCF7 breast) 3.98 µM | GI50 (SN12C renal) 71.5 µM | GI50 (SF-268 CNS) 3.5 µM | GI50 (HOP-62 NSCLC) 5.68 µM | GI50 (HCT-116 colon) 3.68 µM | GI50 (RXF 393 renal) 11.2 µM | GI50 (HL-60(TB) leukemia) > 100 µM | GI50 (IGROV1 ovarian) 2.72 µM | GI50 (NCI-H522 lung) 8.11 µM | GI50 (T-47D breast) 4.51 µM | GI50 (HCT-15 colon) > 100 µM | GI50 (K-562 leukemia) > 100 µM | GI50 (OVCAR-3 ovarian) 7.22 µM | GI50 (NCI-H226 lung) 43.3 µM | GI50 (OVCAR-5 ovarian) > 100 µM | GI50 (SNB-75 CNS) 11.1 µM | GI50 (NCI-H23 lung) 20.4 µM | GI50 (SF-539 CNS) 6.25 µM | GI50 (SF-295 CNS) 3.53 µM | GI50 (HCC-2998 colon) > 100 µM | GI50 (UACC-62 melanoma) 22.6 µM | GI50 (RPMI-8226 leukemia) > 100 µM | GI50 (TK-10 renal) 34.4 µM | GI50 (CAKI-1 renal) 4.21 µM | GI50 (ACHN renal) 14.5 µM | GI50 (HOP-92 NSCLC) 22.6 µM | GI50 (LOX IMVI melanoma) 5.31 µM | GI50 (HS 578T breast) 4.89 µM | GI50 (PC-3 prostate) > 100 µM | GI50 (U251 CNS) 2.42 µM | GI50 (A498 renal) 39.7 µM | GI50 (SNB-19 CNS) 15.1 µM | GI50 (SK-MEL-2 melanoma) 12 µM | GI50 (CCRF-CEM leukemia) > 100 µM | GI50 (COLO 205 colon) > 100 µM | GI50 (MDA-MB-231 breast) 21.4 µM | GI50 (NCI-H460 lung) 3.61 µM | GI50 (786-0 renal) 5.34 µM | GI50 (SK-OV-3 ovarian) 55.7 µM | GI50 (EKVX NSCLC) 8.82 µM
> 100 µM: TGI (SK-MEL-5 melanoma) | TGI (MCF7 breast) | TGI (SN12C renal) | TGI (SF-268 CNS) | TGI (HOP-62 NSCLC) | TGI (HCT-116 colon) | TGI (HL-60(TB) leukemia) | TGI (IGROV1 ovarian) | TGI (NCI-H522 lung) | TGI (T-47D breast) | TGI (HCT-15 colon) | TGI (K-562 leukemia) | TGI (OVCAR-3 ovarian) | TGI (NCI-H226 lung) | TGI (OVCAR-5 ovarian) | TGI (NCI-H23 lung) | TGI (SF-539 CNS) | TGI (SF-295 CNS) | TGI (HCC-2998 colon) | TGI (UACC-62 melanoma) | TGI (RPMI-8226 leukemia) | TGI (TK-10 renal) | TGI (CAKI-1 renal) | TGI (ACHN renal) | TGI (LOX IMVI melanoma) | TGI (PC-3 prostate) | TGI (A498 renal) | TGI (SNB-19 CNS) | TGI (CCRF-CEM leukemia) | TGI (COLO 205 colon) | TGI (MDA-MB-231 breast) | TGI (NCI-H460 lung) | TGI (786-0 renal) | TGI (SK-OV-3 ovarian) | TGI (EKVX NSCLC)
5.56 µM: TGI (U251 CNS)
47.4 µM: TGI (RXF 393 renal)
83.1 µM: TGI (HOP-92 NSCLC)
80.8 µM: TGI (HS 578T breast)
